The results in this text go back to patent US20250059231A1, “Protease inhibitors” (priority 2021, published 2025).

“Also recorded” adds a separate entry of the source. Where a SMILES comes first, the peptide text is derived from it. The star is where a group is joined. Palmitoyl = CCCCCCCCCCCCCCCC(=O)*

For data set [1], the system named is Dengue virus 2 (DENV2, ATCC VR-1584). Nature of the data set: DENV2 infection in AG129 mice: viral load in plasma (plaque assay). It is filed as in vivo. The following applies: b.i.d. As to the method:
The purpose of this study was to determine the efficacy of the compounds on Dengue virus 2 (DENV2, ATCC® VR-1584™) infection in AG129 mice.
Six groups of AG129 mice, 6-8 weeks old, with 9 mice per group were used to test compounds according to table 3.1.1. Animal room environment was monitored for temperature and relative humidity twice per day. The temperature range was 22° C.±3° C. and humidity range was 30-70%. The animals were provided with 12 hours light and 12 hours darkness. Feed and drinking water was provided ad libitum. Compounds 43 and 113 were tested.
Twenty-four hours post treatment (Day 0), animals were injected intraperitoneally (IP) with 0.2 ml of virus suspension (˜5×10^7/animal).
Administration of compounds and vehicle to animals started twenty four hours before infection (Day −1). Animals were treated daily (From Day-1 to day 4) as per the experimental design shown below in table 3.1.5. Animals were monitored for general clinical signs, morbidity and mortality. Body weights were measured daily.
Blood was collected on days-1, 0, 1, 2, 3, 4 to 5.
(§1) BHK-21 cells were cultured to approximately 80% confluency in 24-well plates (NUNC, NY, USA). Plasma samples were 10-fold serially diluted in RPMI 1640 (GIBCO). BHK-21 monolayers were infected with 100 μl of each virus dilution. After incubation at 37° C. and 5% CO2 atmosphere for one hour with rocking at 15 min intervals, the medium was decanted and 1 ml of 1% (w/v)carboxymethyl cellulose in RPMI supplemented with 2% FCS was added to each well. After four days incubation at 37° C. in 5% CO2, the cells were fixed with 4% paraformaldehyde and stained for 30 min with […] of 1% crystal violet dissolved in 37% formaldehyde. After thorough rinsing with water, plates were dried and the plaques were scored visually.
The Mean±SD Log10PFU/ml, relative Mean±SD spleen weight, Mean±SD biomarker concentrations were estimated in each group. Significant differences between group means and control were analyzed by one-way ANOVA, followed by a Dunnett's multiple comparison test, using GraphPad Prism 5 at 95% confidence levels. A p value of <0.05 was considered as significant.

Another data set has as its target T1, ZIKA protease (Zika virus, UniProt Q32ZE1).
T1 construct: a trypsin-like serine protease domain in the N-terminal region of the flaviviral NS3 proteins
Nature of the data set: biochemical. The note with it: for inhibition at 1 µM / inhibition at 50 µM: read-out: inhibition of ZIKV.

A further data set has as its system dengue virus. Description: In vivo assay using subcutaneous vs intraperitoneal administration, plaque assay in mouse plasma. The following applies: for therapeutic efficacy by plaque assays in mouse plasma through the treatment period / plaque assay in mouse plasma: 20 mg/kg (5h post infection); for efficacy against dengue virus infection after subcutaneous administration: subcutaneous vs other routes of administration, mice. More on the design: species or system mice. As to the method: FIG. 5B-viral load (plaque assay) in plasma of mice following treatment with vehicle or with compound 113 (20 mg/kg, b.i.d. IP and SC starting at 5h post-infection). Error bars are Mean±SEM.
as §1
These studies were largely performed as in Example 17, with a difference found in the administration of compounds of the invention. […] In this example the compounds of the invention are administered using subcutaneous administration, and compound 113 was used as exemplary for compounds according to the invention.
Results are shown in the table below, where compounds were used at 20 mg/kg (5h post infection). Antiviral activity is much improved after subcutaneous administration, with a longer lasting effect.

On the set-up of data set [2]: species or system mice. The note with it: mouse, in vivo. An excerpt:
FIG. 5A-multidose PK-profiles of compound 113 in mice after intravenous (IV), intraperitoneal (IP) and subcutaneous (SC) administration to mice (dosed twice per day for 5 days, mean of 3 mice per group).
FIG. 5D-multidose PK-profiles of compound 43 in mice after intravenous (IV), intraperitoneal (IP) and subcutaneous (SC) administration to mice (dosed twice per day for 5 days, mean of 3 mice per group).
Similar data was obtained with compound 43 (FIG. 5D)

Another data set deals with T2, WNV protease (West Nile virus, UniProt P06935).
T2 construct: a trypsin-like serine protease domain in the N-terminal region of the flaviviral NS3 proteins
Description: WNV protease assay (analogous procedure). It is filed as biochemical. The note with it: read-out: IC50 for WNNV.

T1 sequence (Q32ZE1 1499-1676): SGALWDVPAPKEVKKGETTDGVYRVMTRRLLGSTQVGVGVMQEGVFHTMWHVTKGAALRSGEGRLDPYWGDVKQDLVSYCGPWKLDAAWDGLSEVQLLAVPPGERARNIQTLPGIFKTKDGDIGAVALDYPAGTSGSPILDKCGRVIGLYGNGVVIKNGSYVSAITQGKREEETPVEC
T1 sequence (Q32ZE1 1421-1460): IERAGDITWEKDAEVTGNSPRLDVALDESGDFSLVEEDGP
T2 sequence (P06935 1424-1463): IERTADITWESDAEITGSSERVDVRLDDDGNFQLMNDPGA
T2 sequence (P06935 1502-1679): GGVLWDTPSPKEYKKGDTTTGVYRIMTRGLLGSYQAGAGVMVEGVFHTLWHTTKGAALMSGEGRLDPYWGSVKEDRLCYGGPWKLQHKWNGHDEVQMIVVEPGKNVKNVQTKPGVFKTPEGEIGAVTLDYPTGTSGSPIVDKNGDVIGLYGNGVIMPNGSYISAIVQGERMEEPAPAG

In the case of `CCCCCCCCCCCCCCCC(=O)N[C@@H](CCCCN)CC(=O)N[C@@H](C)C(=O)N[C@@H](C)CC(=O)N[C@H](CCCCN)C(N)=O` (stereo in doubt) [compound 113], the “Mean + SD Log10PFU/ml Plasma” value in data set [1] (Day 2, 10 mg/kg I.P) came to 3.79 ± 0.10 Log10PFU/ml; in data set [1] (Day 2, 20 mg/kg I.P), 3.07 ± 0.28 Log10PFU/ml; in data set [1] (Day 4, 10 mg/kg I.P) it was 4.65 ± 0.08 Log10PFU/ml; in data set [1] (Day 5, 10 mg/kg I.P), 3.66 ± 0.11 Log10PFU/ml; in data set [1] (Day 5, 20 mg/kg I.P), 3.77 ± 0.11 Log10PFU/ml. The IC50 is not above 25 µM against ZIKA protease and not above 40 µM at WNV protease. The inhibition at 1 µM on ZIKA protease is not below 10%. Also, the inhibition at 50 µM at ZIKA protease is not below 65%. Besides, the “therapeutic efficacy by plaque assays in mouse plasma through the treatment period” value in the data set on dengue virus was “good therapeutic efficacy”. For the same molecule, the “plaque assay in mouse plasma” value in the data set on dengue virus (Day 3, IP) is recorded as 4.70 ± 0.75; in the data set on dengue virus (Day 3, SC), 3.58 ± 0.34; in the data set with dengue virus (Day 4, IP), 4.23 ± 0.52; with dengue virus (Day 4, SC), 3.26 ± 0.49. Besides, in the data set on dengue virus, the “efficacy against dengue virus infection after subcutaneous administration” value is on record as “great efficacy; also recorded: improved efficacy”. In data set [2], the pharmacokinetic profiles result was “reliable pharmacokinetic profiles with limited inter animal variability and dose proportionality”. In data set [2] (sc), the “elimination in blood plasma” value is “slow elimination”. In addition, the “pharmacokinetic behaviour when administered subcutaneously” value in data set [2] (sc) is recorded as “improved pharmacokinetic behaviour”.
With `CCCCCCCCCCCCCCCC(=O)N[C@@H](CCCNC(=N)N)C(=O)N[C@@H](CCC(N)=O)C(=O)N[C@@H](Cc1ccccc1)C(N)=O` [compound 43] (Palmitoyl-Arg-Gln-Phe-NH2), the “Mean + SD Log10PFU/ml Plasma” value is recorded as 3.36 ± 0.41 Log10PFU/ml in data set [1] (Day 2, 10 mg/kg I.P); 3.48 ± 0.25 Log10PFU/ml in data set [1] (Day 2, 20 mg/kg I.P); 3.28 ± 0.21 Log10PFU/ml in data set [1] (Day 5, 10 mg/kg I.P); 3.06 ± 0.31 Log10PFU/ml in data set [1] (Day 5, 20 mg/kg I.P). Further, the half-maximal inhibitory concentration (IC50) against ZIKA protease is not above 25 µM; on WNV protease it was not above 40 µM. On ZIKA protease, the inhibition at 1 µM was not below 10%. Besides, the inhibition at 50 µM at ZIKA protease was not below 65%. For the same molecule, in the data set on dengue virus, the “therapeutic efficacy by plaque assays in mouse plasma through the treatment period” value is “good therapeutic efficacy”. Further, the “plaque assay in mouse plasma” value is listed as 4.32 ± 0.45 in the data set with dengue virus (Day 3, IP); 3.43 ± 0.304 in the data set on dengue virus (Day 3, SC); 4.38 ± 0.41 with dengue virus (Day 4, IP); 3.34 ± 0.40 in the data set with dengue virus (Day 4, SC). Also, the “efficacy against dengue virus infection after subcutaneous administration” value in the data set with dengue virus was “great efficacy”. Also, in data set [2] (sc), the “pharmacokinetic behaviour when administered subcutaneously” value is recorded as “improved pharmacokinetic behaviour”.
